Assay results taken from US6808873B2, “Screening assays using intramitochondrial calcium” (MitoKor, Inc., priority 2000, dated 2004).

What was measured:
[1] = test system: mitochondria permeability transition (MPT); experiment: MPT modulation assay, digitonin-permeabilized 293T cells, cuvette spectrofluorimeter; assay type: cell-based, human; conditions: diamide 500 micromolar
Protocol: The transition induction effect on MPT by the MPT effector, diamide (a thiol oxidizing agent and pro-oxidant) were performed with a second cell line, 293T. The 293T cells were suspended in 2 milliliters of growth media, DMEN and 10% FBS, with 100 micromolar of ethacrynic acid (1×10^7 cells/ml) and preincubated for 14 minutes to remove ability of cells to deal with oxidative stress making them susceptible to the pro-oxidant. The cells were centrifuged, media aspirated, resuspended in 2 milliliters of respiratory media containing digitonin (MM-D), and transferred into a cuvette. The digitonin (dig) in MM-TD permeabilizes the cells. The cuvette was placed in a LS50B Perkin Elmer Spectrofluorimeter and 40 micromolar CaCl2 in H2O was added into the suspension. After approximately three minutes 500 micromolar diamide was dispensed into the cuvette.

[2] = test system: mitochondria permeability transition (MPT); experiment: MPT modulation assay, digitonin-permeabilized MixCon cells, Ca-Green-5N, cuvette spectrofluorimeter; assay type: cell-based
Protocol: An assay was performed in order to observe the transition induction effect on MPT by the MPT effector, diamide (a thiol oxidizing agent and pro-oxidant). The assay was performed in a digitonin-permeabilized cell line of mixed cybrids, MixCon in the presence of Ca^2+ and Ca-Green-5N and monitored in an LS50B Perkin Elmer Spectrofluorimeter, but is adaptable to the FLIPR system. Initially, ethacrynic acid was added to the MixCon cells in Dulbecco's modified Eagle's medium and 10% FBS, to a final concentration of 100 micromolar and preincubated for 5 minutes to remove the ability of cells to deal with oxidative stress making cells susceptible to the pro-oxidant. The cells were then centrifuged, growth media was aspirated, and cells resuspended, at 1.1×10^7 cells/milliliter, in 2 milliliters of respiratory media containing digitonin (MM-D) whereupon the digitonin (dig) permeabilizes the cells. The suspension was then transferred to a spectrofluorimetric cuvette. The cuvette was placed in the fluorimeter and 0.3 microliters of a 254 millimolar CaCl2 stock was added to the cuvette (final CaCl2 concentration of 40 micromolar). After approximately three minutes diamide was added to the cuvette to a final concentration of 500 micromolar].

[3] = test system: mitochondria permeability transition (MPT); experiment: High-throughput MPT modulation assay, permeabilized HepG2 cells with and without thapsigargin, FLIPR 384; assay type: cell-based, human; conditions: compounds 1 micromolar
Protocol: HepG2 cells (hepatocellular carcinoma, ATCC HB-8065), in suspension, were used to determine the effect of these compounds on mitochondria Ca^2+ sequestration by monitoring extramitochondrial Ca^2+ concentrations in the presence or absence of the Ca^2+ uptake inhibitor of the endoplasmic reticulum, thapsigargin (Calbiochem, San Diego, Calif.). On the day of the assay solutions of the respiratory media containing digitonin with thapsigarin (MM-TD) and without thapsigarin (MM-D) were prepared as previously described. Calcium chloride was added to each to a final concentration of 6 micromolar Ca^2+, to yield MM-TD, 6 uM Ca, and MM-D, 6 uM Ca. Ten times (10×) stock solutions were prepared for the assay by the addition of each of the compounds to final concentrations of 10 micromolar in MM. Ten times (10×) solutions of CaCl2 was prepared in MM or MM-T to concentrations of 200 micromolar, for the second addition.
The HepG2 cells were trypsinized from near-confluent flasks in growth media (Eagle's MEM with non-essential amino acids, sodium pyruvate and Earle's BSS, 90%; FBS 10%). Cells were centrifuged, media was aspirated, and the cells were resuspended to 1×10^7 cells per milliliter in MM-TD, 6 uM Ca and MM-D, 6 uM Ca, whereby Ca^2+ and the indicator dye enter the cells and Ca^2+ becomes sequestered in mitochondria. One hundred (100) microliters of the cell suspension was delivered to each well of a microtiter plate. The plate was placed in the FLIPR 384 warmed to 37° C. An 11.1 microliter volume of the 10× stock solutions with the test compounds were dispensed into designated wells such that the assay concentration are 1 micromolar. After a three minute interval, a Ca^2+ pulse of 20 micromolar was delivered by adding 12.3 microliters of the 10× CaCl2 solutions containing 200 micromolar Ca^2+.

Ca^2+ uniporter [4] = target: T1, Ca^2+ uniporter (Homo sapiens, UniProt Q8NE86); experiment: High-throughput uniporter assay of different compounds, permeabilized HepG2 cells with and without thapsigargin, FLIPR II; assay type: cell-based; conditions: test compounds 1 micromolar
T1 construct: The effects of several intracellular Ca^2+ modulating agents (ICMAs) on permeabilized HepG2 cells were examined; endogenous in cells; host or cells: HepG2 (ATCC HB-8065), digitonin-permeabilized, in suspension
T1 sequence (Q8NE86 51-351): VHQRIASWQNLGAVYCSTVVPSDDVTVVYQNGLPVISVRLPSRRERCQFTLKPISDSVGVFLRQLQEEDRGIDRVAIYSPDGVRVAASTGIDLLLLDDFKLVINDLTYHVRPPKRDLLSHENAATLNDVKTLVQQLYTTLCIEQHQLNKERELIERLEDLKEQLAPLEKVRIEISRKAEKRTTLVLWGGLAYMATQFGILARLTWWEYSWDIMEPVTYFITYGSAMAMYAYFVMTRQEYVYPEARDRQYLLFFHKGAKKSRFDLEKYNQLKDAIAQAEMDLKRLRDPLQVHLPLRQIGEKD
T1 sequence (Q9H4I9 48-107 partner limits assumed): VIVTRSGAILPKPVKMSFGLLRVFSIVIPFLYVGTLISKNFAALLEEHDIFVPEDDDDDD
Description: The high-throughput uniporter assay protocol, carried out as described above for suspension cells, was used to determine the effect of different compounds on mitochondria and extramitochondrial Ca^2+ concentrations in the presence or absence of the Ca^2+ uptake inhibitor of the endoplasmic reticulum, thapsigargin (Calbiochem). Agents examined in this assay include calcium channel inhibitors, pro- and anti-oxidants, mitochondrial inhibitors and uncouplers, and the Ca—UP inhibitor Ru360. On the day of the assay, solutions of the respiratory/cell permeabilizing media containing digitonin with thapsigarin (MM-TD) and without thapsigarin (MM-D) were prepared as previously described. Calcium chloride was added to each to a final concentration of 6 micromolar Ca^2+, resulting in MM-TD, 6 uM Ca and MM-D, 6 uM Ca. A MM solution was prepared with a 10× Ca^2+ concentration of 200 micromolar for the second Ca^2+ pulse. The Ca^2+-uniporter inhibitor Ru360 was prepared at a 10× concentration of 100 microliters in MM. Ten times (10×) stock solutions of the other agents were prepared for the assay by the addition of the compounds to final concentrations of 10 micromolar into MM. […] Controls include water and 10% DMSO (Sigma) in MM.
Cells of the HepG2 cell line (hepatocellular carcinoma, ATCC HB-8065) were trypsinized from near-confluent flasks in growth media (Eagle's MEM with non-essential amino acids, sodium pyruvate and Earle's BSS, 90%; FBS 10%). Cells were centrifuged, growth media was aspirated, and cells were resuspended to a concentration of 1×10^7 cells per milliliter in MM-TD, 6 uM Ca, or MM-D, 6 uM Ca. One hundred (100) microliters of the cell suspension (about 1×10^6 cells) were delivered to wells of a microtiter plate. The plate was placed in a FLIPR™ II (used in 96-well format) warmed to 37° C. An 11.1 microliter aliquot of the 10× stock solutions with water or DMSO (controls), Ru360 (Ca—UP inhibitor), or the test compounds, were dispensed into designated wells such that the assay concentration of DMSO is 0.1%, Ru360 is 10 micromolar, and each of the test compounds are at 1 micromolar concentrations. After an additional three minutes, a second addition of 12.3 microliters of the 10× CaCl2 (200 micromolar Ca^2+), was dispensed into the wells of the microtiter plate resulting in assay concentrations of 20 micromolar Ca^2 (Extramitochondrial Ca^2+ bound to the calcium indicator dye was monitored throughout and profiles of each assay; the results are presented in FIG. 12, with all thapsigargin minus (thaps−) assays in wells corresponding to columns 1-6 and thapsigargin plus (thaps+) assays in wells corresponding to columns 7-12.

calcium uniporter (CaUP) = experiment: Calcium uniporter (CaUP) functional assay, suspended permeabilized L6 cells, FLIPR; assay type: cell-based, rat; conditions: 5 microgram/milliliter oligomycin and 2 micromolar rotenone together, 16 micromolar Ca^2+; FIG. 9
Protocol: A series of functional assays were performed on non-adherent cell lines in order to optimize the mitochondria Ca—UP assay on FLIPR using Calcium-Green-5N and digitonin permeabilized cells. A dose response of Ca^2+ pulses with and without the addition of mitochondria oxidative respiration uncouplers were performed utilizing cells from […]. MM with thapsigarin, MM-T, and digitonin, MM-TD, are prepared as previously described. Ten times (10×) Ca^2+ media is prepared by adding CaCl2 (160 micromolar) to MM-T. The L6 cells were suspended in the cell permeabilizing respiratory media MM-TD at a concentration of 1×10^7 cells per milliliter. […] Emissions resulting from [Ca^2+:Calcium-Green-5N] complexes were monitored at the appropriate wavelength so as to follow changes in intracellular Ca^2+ levels throughout the assay.
Functional assays of the calcium uniporter (CaUP) were similarly performed on non-adherent L6 cells, as described above, with respiratory inhibitors oligomycin and rotenone in order to observe the effects of elimination of the membrane potential using this high throughput FLIPR. […] The emission wavelength was monitored and intracellular Ca^2+ levels observed throughout assay. […] When media with no Ca^2+ is added, the fluorescence changes only minimally (rows 3 and 4)] […]

Ca^2+ uniporter [5] = experiment: Ca^2+ uniporter assay, adherent permeabilized MixCon cells, Calcium-Green-5N on FLIPR, with respiratory inhibitors; assay type: cell-based; conditions: 10 micromolar Ca^2+; for Ca^2+-5N fluorescence after the second Ca^2+ pulse, presence of succinate: oligomycin 5 micrograms/milliliter and rotenone 2 micromolar together (MM-GMS-TD-OR), 5 millimolar succinate; for Ca^2+-5N fluorescence after the second Ca^2+ pulse, presence of succinate / Ca^2+-5N fluorescence after the second Ca^2+ pulse, absence of succinate: FIG. 8; for signal corresponding to extramitochondrial calcium after each Ca^2+ pulse: oligomycin 5 micrograms/milliliter or rotenone 2 micromolar, three pulses, FIG. 7; for Ca^2+-5N fluorescence after the second Ca^2+ pulse, absence of succinate: oligomycin 5 micrograms/milliliter, rotenone 2 micromolar, glutamate/malate medium
Protocol: Mitochondrial inhibitors of oxidative phosphorylation, oligomycin and rotenone, were used to observe the effect of decreased membrane potential of mitochondria on cytosol Ca^2+ levels in the adherent cell line MixCon. The adherent MixCon cells in Dulbecco's modified Eagle's medium and 10% FBS growth media were dispensed into wells of a 96-well microtiter plate at a concentration of about 6×10^4 cells in 100 microliters per well 48 hours prior to assay. Just prior to their use the growth media was aspirated from the wells. Ninety (90) microliters of MM-TD with oligomycin (5 micrograms/milliliter) or rotenone (2 micromolar), or MM-TD without either inhibitor, were added to the cells. The plate was placed in a FLIPR™ system, and three doses of the 10× stock (100 micromolar) solution of calcium were dispensed into the different wells at approximately 2 minute intervals with increasing volumes (10, 11.1, and 12.3 microliters respectively), resulting in a constant concentration of 10 micomolar Ca^2+ throughout the course of the assay. Emissions at the 531 nm wavelength were monitored by a FLIPR™ as a measure of extramitochondrial Ca^2+-Green-5N fluorescence. The signal corresponding to extramitochondrial calcium increased after each pulse and, in samples when remained high when in the presence of the two inhibitors. Alternatively, Ca^2+ is sequestered in mitochondria of cells not exposed to inhibitors (FIG. 7).
Another assay was performed to examine the effect by the respiratory inhibitors oligomycin and rotenone and subsequent release of Ca^2+ from mitochondria in the presence or absence of succinate in MixCon cells. Two different master mixes (MM and MM-GMS) were prepared with MM prepared as previously described. MM-GMS was prepared by the addition of glutamate, malate and succinate to final concentrations of 5 millimolar each, MgCl2 to a final concentration of 1 millimolar, EGTA to a final concentration of 10 micromolar, and Calcium-Green-5N to a final concentration of 0.1 micromolar, to a basic KCl-based respiratory media (BReM, Table 3). Thapsigargin was added to the MM and MM-GMS to a final concentration of 1 micromolar to yield MM-T and MM-GMS-T (where “T” indicates Thapsigargin and “GMS” indicates glutamate, malate and succinate. The cell permeabilizing agent digitonin was added to MM-T and MM-GMS-T to a final concentration of 0.03% to yield solutions designated as MM-TD and MM-GMS-TD. As indicated in some instances, the mitochondrial inhibitors oligomycin and rotenone (Calbiochem) were each added to solutions of MM-TD and MM-GMS-TD to final concentrations of 5 micrograms/milliliter and 2 micromolar, respectively.
CaCl2 was added to MM-T and MM-GMS-T to a concentration of 50 micromolar Ca^2+ to yield 5× Ca^2+ solutions in MM-T and MM-GMS-T, respectively. Versions of the 5× Ca^2+ stock solutions comprising respiratory inhibitors were also prepared (oligomycin, final concentration of 50 micrograms/milliliter; rotenone, 20 micromolar).
The MixCon cells, in Dulbecco's modified Eagle's medium and 10% FBS growth media, were dispensed into wells of a 96-well Costar 3603 microtiter plate at a concentration of 6×10^4 cells in one hundred microliters per well, 48 hours prior to the assay. Just prior to their use the growth media was aspirated from the wells. Eighty (80) microliters of MM-TD, MM-GMS-TD, MM-TD-O, MM-TD-R, and MM-GMS-TD-OR (where “O” oligomycin and “R” signifies rotenone) were dispensed into wells containing the cells. The microtiter plate was placed in a FLIPR™ preheated to 37° C. and an initial injection of 20 microliters of the 5× stock solutions (50 micromolar) of Ca^2+, with olygomycin, rotenone or no additions, were dispensed into the appropriate wells such that the Ca^2+ concentration in the assay is 10 micromolar and wells with the inhibitors remain at constant assay concentrations.
A second pulse of 25 microliters of the 5× solution was supplied after approximately 5 minutes. […]

Ca^2+ uniporter [6] = target: T1, Ca^2+ uniporter; experiment: Ca^2+ uniporter assay, digitonin-permeabilized suspended HepG2 cells, Calcium-Green-5N on FLIPR, ICMA added between two Ca^2+ pulses; assay type: cell-based; conditions: 5 micrograms/milliliter oligomycin, 2 micromolar rotenone, 1 micromolar FCCP; for release of sequestered Ca^2+ from mitochondria after addition of the agent: added about 3 min after first 12 micromolar Ca^2+ pulse, thapsigargin present; for mitochondrial uptake of the second Ca^2+ pulse: second Ca^2+ pulse at about t=6 min, 1 micromolar RU360
Protocol: A master mix solution (MM Solution) was prepared by the addition of glutamate and malate to final concentrations of 5 millimolar each, MgCl2 to a final concentration of 1 millimolar, EGTA to a final concentrations of 0 to 8 micromolar, and Calcium-Green-5N to a final concentration of 0.1 to 1.0 micromolar, to a basic KCl-based respiratory media (“BReM”) that is described in Table 3. […] The hexapotassiun salt Calcium-Green-5N (Molecular Probes, Eugene, Oreg.) in the MM Solution is a fluorescent dye that has low binding affinity to Ca^2+.
Thapsigargin (Calbiochem, San Diego, Calif.), a Ca^2+ uptake inhibitor of the endoplasmic reticulum (ER), was added to the MM Solution to a final concentration of 1 micromolar to yield a solution designated “MM-T” (i.e., Master Mix with Thapsigargin).
The cell membrane permeabilizing agent digitonin (Sigma, St. Louis, Mo.) was added to MM-T to a final concentration of from about 0.007% to about 0.03% to yield a solution referred to as “MM-TD” (i.e., Master Mix with Thapsigargin and digitonin. CaCl2 was added to MM-T to provide a solution with a determined final concentration of Ca^2+ for the determination of intracellular Ca^2+ flux.
The effects of several intracellular Ca^2+ modulating agents (ICMAs) on permeabilized HepG2 cells were examined as follows. The mitochondrial respiratory inhibitors oligomycin (Calbiochem, San Diego, Calif.) and rotenone (Calbiochem) were added to MM-T to final concentrations of 50 micrograms/milliliter and 20 micromolar, respectively. The uncoupler FCCP was similarly added to MM-T to a 10× concentration (10 micromolar) to yield a stock solution of FCCP, MM-TF (i.e., Master Mix with Thapsigargin and FCCP). The ICMA Ru360, which blocks Ca^2+ uptake into the mitochondria by the calcium uniporter, was added to MM-T to a concentration of 100 micromolar to yield MM-T360 (i.e., Master Mix with Thapsigragin and Ru360). CaCl2 was added to MM-T to yield a 10× solution of CaCl2 (120 micromolar) in MM-T.
HepG2 cells were cultured in Eagle's minimal essential medium (MEM) with non-essential amino acids, sodium pyruvate and Earle's balanced salt solution (BSS), 90%; fetal bovine serum (FBS), 10%. Cells were centrifuged (500×g) and the growth media was aspirated from the pellet. The HepG2 cells were resuspended in MM-TD at a concentration of 1×10^7 cells/milliliter, and 100 microliters of the resuspended permeabilized cells were dispensed into wells of a 96-well Costar 3603 microplate. The plate was placed into a FLIPR™ prewarmed to 37° C. MM-T, 120 micromolar Ca^2+, was dispensed into the cell-containing wells at a volume of 11.1 microliters, yielding a final assay concentration of 12 micromolar Ca^2+. The addition of Ca^2+ at this stage of the assay is referred to as the first calcium pulse and the time at which Ca^2+ is added is designated t=0.
After about three minutes (i.e., at about t=3 min.), 12.3 microliters of one of the ICMA solutions were dispensed into wells containing permeabilized cells to yield final assay concentrations of 5 micrograms/milliliter oligomycin, 2 micromolar rotenone, 1 micromolar FCCP, 1 micromolar RU360, and MM-T (no ICMA).
Cells were exposed to a second calcium pulse by the addition of 13.7 microliters of MM-T, 120 micromolar Ca^2+, to the cells after an additional 3 minutes (i.e., at about t=6 min.).

CN(C)C(=O)/N=N/C(=O)N(C)C [diamide, azodicarboxylic acid bis[dimethylamide]]
time after which the rate of Ca^2+ release substantially increased [1]: about 7.5 minutes | Ca^2+ release from mitochondria after diamide addition ([1]; ethacrynic acid 100 micromolar preincubation 14 minutes, 40 micromolar CaCl2): immediately began to slowly release Ca^2+ to the medium | fluorescence upon addition of diamide in the presence of CsA ([2]; diamide 500 micromolar with 10 micromolar CsA): only a slight increase in fluorescence | time until mitochondria released the sequestered Ca^2+ after diamide addition ([2]; diamide 500 micromolar, cells preincubated with 100 micromolar ethacrynic acid, 40 micromolar CaCl2): ≤ 6 min | assay profile after the 20 micromolar Ca^2+ pulse [3]: sequestering of Ca^2+ by mitochondria after the Ca^2+ pulse | uniporter activity profile after the 20 micromolar Ca^2+ pulse (Ca^2+ uniporter [4]): uniporter non-inhibitory profile

CC[C@H]1/C=C/C=C/C[C@@H](C)[C@H](O)[C@@](C)(O)C(=O)[C@@H](C)[C@H](O)[C@@H](C)C(=O)[C@@H](C)[C@H](O)[C@@H](C)/C=C/C(=O)O[C@@H]2[C@H](C)[C@H](CC1)O[C@]1(CC[C@H](C)[C@H](C[C@@H](C)O)O1)[C@H]2C [oligomycin]
mitochondrial sequestration of added Ca^2+ (calcium uniporter (CaUP)): Ca^2+ is not sequestered in the mitochondria | Ca^2+-5N fluorescence after the second Ca^2+ pulse, presence of succinate (Ca^2+ uniporter [5]): reduction of Ca^2+-5N fluorescence after the second Ca^2+ pulse | signal corresponding to extramitochondrial calcium after each Ca^2+ pulse (Ca^2+ uniporter [5]): remained high | Ca^2+-5N fluorescence after the second Ca^2+ pulse, absence of succinate (Ca^2+ uniporter [5]): elevated levels of Ca^2+-5N fluorescence after the second Ca^2+ pulse | release of sequestered Ca^2+ from mitochondria after addition of the agent (Ca^2+ uniporter [6]): caused the release of Ca^2+ from mitochondria into the cytosol | mitochondrial uptake of the second Ca^2+ pulse (Ca^2+ uniporter [6]): could not sequester the added Ca^2+

C=C(C)[C@H]1Cc2c(ccc3c2O[C@@H]2COc4cc(OC)c(OC)cc4[C@@H]2C3=O)O1 [rotenone]
mitochondrial sequestration of added Ca^2+ (calcium uniporter (CaUP)): Ca^2+ is not sequestered in the mitochondria | Ca^2+-5N fluorescence after the second Ca^2+ pulse, presence of succinate (Ca^2+ uniporter [5]): reduction of Ca^2+-5N fluorescence after the second Ca^2+ pulse | signal corresponding to extramitochondrial calcium after each Ca^2+ pulse (Ca^2+ uniporter [5]): remained high | Ca^2+-5N fluorescence after the second Ca^2+ pulse, absence of succinate (Ca^2+ uniporter [5]): elevated levels of Ca^2+-5N fluorescence after the second Ca^2+ pulse | uniporter activity profile after the 20 micromolar Ca^2+ pulse (Ca^2+ uniporter [4]): Ca^2+ can no longer be sequestered by the mitochondria | release of sequestered Ca^2+ from mitochondria after addition of the agent (Ca^2+ uniporter [6]): caused the release of Ca^2+ from mitochondria into the cytosol | mitochondrial uptake of the second Ca^2+ pulse (Ca^2+ uniporter [6]): could not sequester the added Ca^2+
